Patent US7279300B2, “Protozoan rhomboid proteins” (priority 2002, dated 2007)

Legend:
Pf rhomboid-1 = Pf rhomboid-1 cleavage of GFP-tagged Spitz co-expressed in COS cells (western blot); assay type: cell-based, Plasmodium falciparum; conditions: serum-free medium supplemented with inhibitor, substrate Spitz
Description: (§1) Plasmodium rhomboid activity was determined using published methods described in Urban et al Cell (2001) 107(2): 173-82 and WO02/093177. Briefly, Pf rhomboids-1 and -3 were co-expressed with GFP-tagged Spitz under control of a CMV promoter; as follows; COS cells were grown in DMEM medium (supplemented with 10% foetal calf serum), and transfected with FuGENE 6 Transfection Reagent (Roche). Cells were co-transfected in 35 mm culture wells with 25-250 ng of (a) rhomboid construct comprising the Pf-rhomboid-1 or -3 coding sequence inserted into the vector pcDNA 3.1+ (Invitrogen), and (b) substrate construct comprising the GFP-Spitz coding sequence inserted into pcDNA 3.1+ (Invitrogen). Empty plasmid was used to bring the total DNA to 1 μg per well. Construct (b) was transfected into COS cells in the absence of construct (a) as a control for endogenous cleavage of the substrate. 24-30 hours post-transfection, the medium was replaced with serum-free medium; this was harvested 24 hours later and cells were lysed in SDS-sample buffer. For some experiments, the serum-free medium was supplemented with the metalloprotease inhibitor batimastat (British Biotech) or ilomostat (Calbiochem) to minimize endogenous substrate cleavage in the assay. For inhibitor assays, a test compound may be included in the serum-free medium. […]

Pf rhomboid-3 = Pf rhomboid-3 cleavage of GFP-tagged Spitz co-expressed in COS cells (western blot); assay type: cell-based, Plasmodium falciparum; conditions: serum-free medium supplemented with inhibitor, substrate Spitz
Description: as §1

CNC(=O)[C@H](Cc1ccccc1)NC(=O)[C@H](CC(C)C)[C@H](CSc1cccs1)C(=O)NO [batimastat]
inhibition of Pf rhomboid-1 cleavage of Spitz (Pf rhomboid-1): not inhibited
inhibition of Pf rhomboid-3 cleavage of Spitz (Pf rhomboid-3): not inhibited
